Data from publication PMC9872677, “Boronic Acid Transition State Inhibitors as Potent Inactivators of KPC and CTX-M β-Lactamases: Biochemical and Structural Analyses” (Antimicrobial Agents and Chemotherapy, 2023).
Values after ≈ are worked out from the molar mass of the structure shown. Like-named read-outs stand apart in the source and are kept apart here.

Columns and labels:
CTX-M-96 β-lactamase [1] = biological target: T1, CTX-M-96 β-lactamase (Escherichia coli, UniProt Q9EXV5, N92S); experiment: On rate (k2/K) from progress curves with nitrocefin; format: biochemical
Method: (§1) To determine the on rate (k2/K), progress curves were obtained by incubating KPC-2 or CTX-M-96 with increasing concentrations of BATSIs and 100 μM nitrocefin as the reporter substrate. Progress curves were fitted to equation 2 to obtain kobs values, by nonlinear least-squares fitting of the data, and k2/K was determined from equation 3. (2) A = vf * t + (v0 − vf) × (1 − e^−kobst)/kobserved + A0 (3) kobserved = k−2 + (k2/K) × ([I]/(1 + ([S]/Km nitrocefin))) In equation 2, A is absorbance at 482 nm, vf is final velocity, t is time, v0 is initial velocity, and A0 is initial absorbance at 482 nm. In equation 3, [I] is the concentration of BATSI and [S] is the concentration of nitrocefin. The data were plotted as kobs versus [BATSI], and the k2/K value was obtained by correcting the value for the slope of the line for the concentration and affinity of nitrocefin (Equation 4). (4) k2/Kcorrected = k2/Kobserved × (([S]/Km nitrocefin) + 1)

KPC-2 β-lactamase [2] = biological target: T2, KPC-2 β-lactamase (Klebsiella pneumoniae, UniProt Q9F663); experiment: as above; format: biochemical
T2 construct: made in house; host or cells: E. coli BL21 Star
Method: as §1

CTX-M-96 β-lactamase [3] = biological target: T1, CTX-M-96 β-lactamase; experiment: IC50 after 5-min preincubation, nitrocefin reporter substrate; format: biochemical; conditions: 100 μM nitrocefin
Method: (§2) Using nitrocefin as an indicator substrate and 5 min incubation before steady-state velocities were determined, 50% inhibitory concentrations (IC50s) in the nanomolar range for KPC-2 and CTX-M-96 β-lactamases were measured, and both inhibitors bound CTX-M-96 with greater affinity than KPC-2 (Table 1). The IC50 was approximatively 40-fold lower for CTX-M-96 than KPC-2 for both inhibitors. The IC50 of S02030 is 2 nM against CTX-M-96 and 80 nM against KPC-2 ([12]). […] The on rates (k2/K) for S02030 and MB_076 versus CTX-M-96 were 24,000 M^−1 s^−1 and 3,900 M^−1 s^−1, respectively, and those for KPC-2 were 12,000 M^−1 s^−1 and 1,200 M^−1 s^−1 respectively (Table 1). […] The k2/K values for both BATSIs against CTX-M-96 were lower than those of avibactam ([16]). […] Kinetic plots for CTX-M-96–S02030, CTX-M-96–MB_076, and KPC-2–MB_076 are shown in Fig. S1 in the supplemental material.
(§3) The inhibition by BATSIs is assumed to follow a reversible mechanism according to the following scheme: (1) E + I ↔ E:I ↔ E-I^*↔ E-I^** where E represents the enzyme, I the BATSI, E:I the Michaelis complex, E-I* the enzyme-inhibitor complex as the acylation transition state analog, and E-I** the deacylation transition state intermediate, according to previous models ([15]). The half-maximal inhibitory concentration (IC50) was measured after a 5-min preincubation of the enzyme and each BATSI at increasing concentrations, with 100 μM nitrocefin as the reporter substrate, as previously described ([12], [13]).

KPC-2 β-lactamase [4] = biological target: T2, KPC-2 β-lactamase; experiment: as above; format: biochemical; conditions: 100 μM nitrocefin
Method: as §2, §3

[5] = tested on: pan-drug-resistant KPC-producing K. pneumoniae clinical isolate; set-up: method as in our unpublished data; conditions: paired with cefepime; separate paper and previous results, ref our unpublished data; cited from earlier work
CTX-M-96 β-lactamase [6] = biological target: T1, CTX-M-96 β-lactamase; experiment: Off rate (koff) after preincubation with saturating BATSI; format: biochemical
KPC-2 β-lactamase [7] = biological target: T2, KPC-2 β-lactamase; experiment: as above; format: biochemical
Method: The koff value was determined by mixing KPC-2 or CTX-M-96 with 100 μM nitrocefin after preincubating 5 min with a saturating amount of each BATSI, and progress curves were fitted to a single exponential decay equation as previously described ([12][–][14]).

[8] = Solubility as DMSO stock solution; format: physicochemical; conditions: organic solvent or mixture
KPC-2 β-lactamase [9] = biological target: T2, KPC-2 β-lactamase; set-up: method as in PMID 26729496; conditions: published previously; cited from earlier work
KPC-2 β-lactamase [10] = biological target: T2, KPC-2 β-lactamase; set-up: method as in PMID 26729496; conditions: off rate, published previously; cited from earlier work
[11] = tested on: Escherichia coli DH10B carrying blaSHV, blaKPC-2, and blaKPC-3 variants; set-up: method as in PMID 26729496; conditions: previous studies; cited from earlier work
CTX-M-96 = biological target: CTX-M-96; set-up: method as in PMID 26228623; conditions: previously reported; cited from earlier work

Row | Structure (SMILES) | k2/K (CTX-M-96 β-lactamase [1]) | k2/K (KPC-2 β-lactamase [2]; on rate) | kinact/KI (KPC-2 β-lactamase [2]; on rate) [M⁻¹ s⁻¹] | IC50 (CTX-M-96 β-lactamase [3]) [nM] | IC50 (KPC-2 β-lactamase [4]) [nM] | restoration of cefepime activity [5] | Koff (CTX-M-96 β-lactamase [6]) | Koff (KPC-2 β-lactamase [7]) [s⁻¹] | solubility [8] [mM] | k2/K fold higher compared to MB_076 (KPC-2 β-lactamase [2]) [fold] | IC50 (KPC-2 β-lactamase [9]) [nM] | Koff (KPC-2 β-lactamase [10]) | restoration of susceptibility combined with cefepime [11] | inactivation efficiency value (kinact/KI) (CTX-M-96)
1 | Nc1nnc(SCC(=O)N[C@@H](Cn2cc(C(=O)O)nn2)B(O)O)s1 [MB_076] | 3,900 M^−1 s^−1 | 1,200 M^−1 s^−1 | 1200 | 4 ± 0.5 | 135 ± 20 | restore cefepime activity | (0.62 ± 0.05) × 10^−3 s^−1 | 0.001 | 1000 (≈ 373 mg/mL) |  |  |  |  | 
2 | O=C(Cc1cccs1)N[C@@H](Cn1cc(C(=O)O)nn1)B(O)O [S02030] | 24,000 M^−1 s^−1 |  |  | 2 ± 0.2 |  | restore cefepime activity | (0.75 ± 0.03) × 10^−3 s^−1 |  | 250 (≈ 81 mg/mL) | 10 | 80 ± 2 | (0.46 ± 0.02) × 10^−3 s^−1 | restored susceptibility | 
3 | O=C(O)[C@H]1/C(=C/CO)O[C@@H]2CC(=O)N21 [clavulanic acid] |  |  |  |  |  |  |  |  |  |  |  |  |  | 45,000 M^−1 s^−1
